Reference: patent US20040086891A1, “Dehydrogenase oligomeric modulators” (priority 1998, published 2004)
Entries after “also recorded” stand apart in the source; their conditions may differ.

Legend:
[1] = test system: partially differentiated PC12 cells or fibroblasts; test: Apoptosis and GAPDH nuclear translocation after NO donor treatment; assay type: cell-based
Excerpt: (§1) The subcellular localization of GAPDH in PC12 cells entering apoptosis using immunocytochemistry and LCSM has been studied.

[2] = biological target: T1, GAPDH (Homo sapiens, UniProt P04406); test: Photoaffinity binding and BODIPY-labelled CGP3466 protein binding study; conditions: photoaffinity binding techniques, BODIPY chromogen
T1 sequence (P04406 whole entry, species assumed): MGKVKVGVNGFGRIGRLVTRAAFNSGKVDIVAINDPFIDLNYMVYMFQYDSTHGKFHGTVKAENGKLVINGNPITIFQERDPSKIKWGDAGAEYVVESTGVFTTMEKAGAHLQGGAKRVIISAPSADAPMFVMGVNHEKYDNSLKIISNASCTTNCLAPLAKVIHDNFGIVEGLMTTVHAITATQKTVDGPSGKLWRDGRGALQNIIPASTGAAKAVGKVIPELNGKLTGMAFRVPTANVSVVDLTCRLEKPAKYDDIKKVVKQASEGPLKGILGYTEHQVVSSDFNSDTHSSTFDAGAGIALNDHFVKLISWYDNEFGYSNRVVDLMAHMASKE
Excerpt: It was also shown that there was an increase in GAPDH levels found in early apoptosis. Photoaffinity binding techniques and a BODIPY chromogen attached to dibenzo[bf]oxepin-10-ylmethyl-prop-2-ynyl-amine (CGP3466), were used to study the protein and subcellular binding of (−)-desmethyldeprenyl (DES) and CGP3466.

[3] = test system: PC12 cells; test: Subcellular localization of GAPDH in PC12 cells entering apoptosis (immunocytochemistry, LCSM); assay type: cell-based; conditions: early apoptosis, 3-12 hours after serum and NGF withdrawal
Excerpt: as §1

[4] = test system: GAPDH; test: GAPDH protein levels in early apoptosis after trophic withdrawal; assay type: cell-based; conditions: increase begins 1.5 to 2.0 hours after trophic withdrawal
Excerpt: (§2) As well as the nuclear translocation, GAPDH levels increase rapidly in the early phases of apoptosis. […] At least three molecules associated with toxin-induced neuronal apoptosis—nitric oxide, superoxide radical and peroxynitrite—have the capacity to free GAPDH from AU-rich RNA (Beckman and Koppenol, 1996). Nitric oxide modifies the structure of GAPDH and appears to free it from AU-rich RNA (Brune and Lapetina, 1995; Brune and Lapetina, 1996; Itoga et al., 1997; McDonald and Moss, 1994). Oxygen free radicals enhance the binding of NAD^+ to GAPDH (Marin et al., 1995). If, in fact, GAPDH translocation to the nucleus does initiate or facilitate apoptosis, then ROS and NO may induce apoptosis through GAPDH.

[5] = biological target: T1, GAPDH; test: Size exclusion chromatography of the oligomeric state of GAPDH; assay type: biochemical; conditions: for oligomeric state of GAPDH bound to poly-U RNA: size exclusion chromatography, GAPDH largely tetrameric without compound; for oligomeric state of GAPDH in the presence of SDS: sodium dodecyl sulfate added, untreated protein becomes monomeric
Procedure: A dehydrogenase oligomeric modulator is identified using size exclusion chromatographic (SEC) techniques. A test compound is tested for its ability to prevent tetramer formation of GAPDH and compounds capable of preventing or inhibiting such formation are identified as DOMs. SEC is used to determine if potential compounds affect the oligomeric state of GAPDH (or any oligomeric protein) when contacted with GAPDH under conditions which promote oligomer formation. This method can be further refined and sped up (i.e., faster data collection) by using SEC-high performance liquid chromatographic (SEC-HPLC) methods. An example is set forth below.
A column was made using a disposable 1 cm diameter column (BIORAD). The chosen matrix for the column was Sephacryl H-300 (PHARMACIA). The column was poured by mixing the beads (SEPHACRYL) in a buffer and layering into the column until the bed was about 12 cm long. The buffer used was 50 mM TRIS—HCl, pH 8.0. The column was then washed with the same buffer for 10 column volumes.
A selection.of protein standards of known molecular weight was run through the column.
Once the column is calibrated, the molecular weight of the eluted fractions (in this case, GAPDH monomers, dimers and tetramers) may be determined.
Prior to moving the proteins to the column they are contacted with candidate compound and mixed at room temperature in, e.g., nanomolar concentrations under conditions known to those skilled in the art.
The mixture prepared above is then added to the column and eluted with 50 mM TRIS—HCl pH 8.0 buffer. 500 μl fractions of the eluent are collected. The optical density of the fractions is then determined, e.g., at 280 nm, and an elution profile prepared and analyzed to determine the extent of oligomerization.
GAPDH is a tetramer consisting of four identical monomers (FIG. 1). The tetramer exists in equilibrium between tetramers, dimers and monomers. This equilibrium strongly favors the tetrameric form. Upon tetramer formation, there is a channel present between the four monomers. […] As such, the ability of (−)-desmethyldeprenyl and CGP3466 to decrease GAPDH tetramer and increase GAPDH dimer in vitro identifies these compounds as oligomeric modulators of GAPDH.

[6] = biological target: T1, GAPDH; test: Antibody blocking experiment for drug binding in the GAPDH channel; conditions: protein first treated with antibody, then drug
Procedure: Antibody blocking experiments were conducted to confirm that CGP3466 bound GAPDH in the channel. In FIG. 2, GAPDH is shown in blue with the site for an antibody which was raised to a certain part of GAPDH is green.

[7] = biological target: T1, GAPDH; conditions: cited from earlier work
[8] = test system: NG108-15 cells; conditions: cited from earlier work
[9] = test system: fibroblasts; test: GAPDH nuclear translocation in fibroblasts treated with NAD+; assay type: cell-based
[10] = biological target: T1, GAPDH; test: Release of GAPDH from AU-rich RNA and glycolytic activity; assay type: biochemical
Excerpt: as §2

[11] = test system: COS and Hek cells; test: GAPDH-GFP fusion protein localization in living COS and Hek cells (LCSM); assay type: cell-based; conditions: first two hours after exposure
Excerpt: GAPDH cDNA was cloned from rat brain using oligonucleotides designed to the 5′- and 3′-ends of the coding region of rat GAPDH with PCR. The cDNA was used to produce a GAPDH-green fluorescent protein (GFP) construct by adding a 3′ oligo (Gly)s to the C-terminus of GAPDH followed by a BamHI site to allow subcloning, in frame, into pEGFP-1 (Clontech). The resulting construct contains GAPDH followed by (Gly)5 and enhanced GFP. The insert was subcloned into the Hindlil-Notl sites of pcDNA3. The GAPDH-GFP construct has been transiently transfected into COS1 cells and stably transfected into HEK 293 cells.
Apoptosis was induced in the living COS and Hek cells maintained in a physiological chamber on LCSM. […] These experiments established that GAPDH nuclear translocation occurs dynamically during the very early stages of apoptosis and indicate that GAPDLH participates in the initiation phase of apoptosis.

In the case of `CC(=O)N[C@@H](C(=O)O)C(C)(C)SN=O` (racemic) [SNAP], the induction of apoptosis [1] is reported as “induced apoptosis”.
With `C#CCNC(C)Cc1ccccc1` (single isomer, unassigned; (-)) [(−)-desmethyldeprenyl] the “binding to GAPDH” value [2] was “bind to GAPDH”, the “nuclear translocation (relocation) of GAPDH” value [3] was “prevent the nuclear relocation of GAPDH” and the “nuclear translocation (relocation) of GAPDH” value ([3]; listed as DES) was “blocked the nuclear translocation”. For the same compound, the “increase in GAPDH protein levels in early apoptosis” value (“increase in GAPDH protein levels” for short) [4] was “prevent the increase”, the “effect on the GAPDH tetramer” value [5] was “disrupt the tetramer forming dimers” and the “oligomeric state of GAPDH bound to poly-U RNA” value [5] was “converted to a dimer”. The “oligomeric state of GAPDH in the presence of SDS” value (shortened to “oligomeric state … of SDS”) [5] was “remains dimeric” and the “oligomeric state … of SDS” value ([5]; listed as DES) was “convert it to a dimer”.
In the case of `C#CCNCC1=Cc2ccccc2Oc2ccccc21` [CGP3466, dibenzo[bf]oxepin-10-ylmethyl-prop-2-ynyl-amine], the “binding to GAPDH” value [2] is reported as “bind to GAPDH”, the proteins bound [2] is reported as “tubulin, actin, synapsin and GAPDH” and the “nuclear translocation (relocation) of GAPDH” value [3] is reported as “prevent the nuclear relocation of GAPDH; also recorded: blocked the nuclear translocation”. The “increase in GAPDH protein levels” value [4] was “prevent the increase”, the “effect on the GAPDH tetramer” value [5] was “disrupt the tetramer forming dimers” and the “oligomeric state of GAPDH bound to poly-U RNA” value [5] was “converted to a dimer”. For the same compound, the “oligomeric state … of SDS” value [5] was “convert it to a dimer”, the “oligomeric state … of SDS” value ([5]; listed as CGP 3466) was “remains dimeric” and the “drug binding to GAPDH after pre-treatment with antibody to the channel site” value [6] was “no binding”.
In the case of `CC(C)[C@H]1CC[C@@]2(CO2)[C@H]2C(=O)OCC(C(=O)O)=C[C@H]12` [Koningic acid], the GAPDH glycolytic function [7] is listed as “inhibits GAPDH glycolytic function” and the induction of apoptosis [8] is listed as “induces apoptosis”.
For `CC(=O)N[C@@H](CS)C(=O)O` [NAC, N-acetyl cysteine], the “increase in GAPDH protein levels” value [4] was “prevent the increase”.
For `NC(=O)c1ccc[n+]([C@@H]2O[C@H](COP(=O)([O-])OP(=O)(O)OC[C@H]3O[C@@H](n4cnc5c(N)ncnc54)[C@H](O)[C@@H]3O)[C@@H](O)[C@H]2O)c1` [NAD^+], the “nuclear translocation of GAPDH” value [9] was “induced the dense translocation of GAPDH to the nucleus”, the GAPDH glycolytic activity [10] was “increases the enzyme's glycolytic activity” and the “release of GAPDH from AU-rich RNA” value [10] was “releases GAPDH from AU-rich RNA”.
With `O=C([O-])c1c(Cl)c(Cl)c(Cl)c(Cl)c1-c1c2cc(I)c(=O)c(I)c-2oc2c(I)c([O-])c(I)cc12.[Na+].[Na+]` [Rose Bengal] the “localization of GAPDH-GFP fusion protein” value [11] was “concentrate in the nucleus of a proportion of the cells”.
